The first assay addresses C5AR1 (Homo sapiens (Human), UniProt P21730). Description: In vitro assay: PathHunter beta-arrestin antagonist assay in CHO-K1 C5AR1 beta-arrestin cell line, stimulated with C5a agonist.
Details: not given
C5AR1, sequence (P21730 whole entry): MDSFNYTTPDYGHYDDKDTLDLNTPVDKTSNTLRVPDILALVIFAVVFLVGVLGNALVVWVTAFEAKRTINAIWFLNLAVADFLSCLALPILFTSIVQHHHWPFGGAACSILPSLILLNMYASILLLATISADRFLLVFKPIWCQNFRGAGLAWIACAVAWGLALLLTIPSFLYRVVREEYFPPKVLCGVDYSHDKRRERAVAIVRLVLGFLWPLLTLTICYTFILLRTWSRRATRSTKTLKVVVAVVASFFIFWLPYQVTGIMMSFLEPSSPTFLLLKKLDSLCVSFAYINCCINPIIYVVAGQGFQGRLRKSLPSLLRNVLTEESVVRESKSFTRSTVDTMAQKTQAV
The molecule `Cc1cccc(F)c1N1CCC(N2C(=O)N(Cc3ccccc3C(F)(F)F)c3ccccc3C2C)CC1` (single isomer, unassigned) [Example 71, (S)- or (R)-3-[1-(2-Fluoro-6-methyl-phenyl)-piperidin-4-yl]-4-methyl-1-(2-trifluoromethyl-benzyl)-3,4-dihydro-1H-quinazolin-2-one] came in with an IC50 of 59 nM.

Still in this assay, the particulars now being: read-out: C5aR IC50; CHO-K1 C5AR1 beta-arrestin cell line; 1-10 nM C5a agonist; geometric mean values.
For `Cc1cccc(F)c1N1CCC(N2C(=O)N(Cc3ccccc3C(F)(F)F)c3ccccc3C2C)CC1` (racemic) [Example 70, 3-[1-(2-Fluoro-6-methyl-phenyl)-piperidin-4-yl]-4-methyl-1-(2-trifluoromethyl-benzyl)-3,4-dihydro-1H-quinazolin-2-one], the IC50 is 205 nM.

`COc1ccccc1N1CCC(N2Cc3cccc(OC)c3N(Cc3ccccc3C(F)(F)F)C2=O)CC1` [Example 4, 8-Methoxy-3-[1-(2-methoxy-phenyl)-piperidin-4-yl]-1-(2-trifluoromethyl-benzyl)-3,4-dihydro-1H-quinazolin-2-one]: the IC50 came to 944 nM.

As for `COc1cccc(F)c1N1CCC(N2Cc3cccc(OC)c3N(Cc3ccccc3C(F)(F)F)C2=O)CC1` [Example 5, 3-[1-(2-Fluoro-6-methoxy-phenyl)-piperidin-4-yl]-8-methoxy-1-(2-trifluoromethyl-benzyl)-3,4-dihydro-1H-quinazolin-2-one], the IC50 turned out to be 300 nM.

As for `COc1ccccc1N1CCC(N2Cc3ccccc3N(Cc3ccccc3C(F)(F)F)C2=O)CC1` [Example 6, 3-[1-(2-Methoxy-phenyl)-piperidin-4-yl]-1-(2-trifluoromethyl-benzyl)-3,4-dihydro-1H-quinazolin-2-one], the IC50 was 245 nM.

As for `COc1cccc(F)c1N1CCC(N2Cc3ccccc3N(Cc3ccccc3C(F)(F)F)C2=O)CC1` [Example 7, 3-[1-(2-Fluoro-6-methoxy-phenyl)-piperidin-4-yl]-1-(2-trifluoromethyl-benzyl)-3,4-dihydro-1H-quinazolin-2-one], the half-inhibitory concentration (IC50) is 58 nM.

`COc1cccc2c1N(Cc1ccccc1C(F)(F)F)C(=O)N([C@@H]1CCN(c3c(F)cccc3F)C1)C2` [Example 8, 3-[(R)-1-(2,6-Difluoro-phenyl)-pyrrolidin-3-yl]-8-methoxy-1-(2-trifluoromethyl-benzyl)-3,4-dihydro-1H-quinazolin-2-one]: the IC50 was found to be 104 nM.

Regarding `COc1cccc2c1N(Cc1ccccc1C(F)(F)F)C(=O)N([C@@H]1CCN(c3c(C)cccc3C)C1)C2` [Example 9, 3-[(R)-1-(2,6-Dimethyl-phenyl)-pyrrolidin-3-yl]-8-methoxy-1-(2-trifluoromethyl-benzyl)-3,4-dihydro-1H-quinazolin-2-one], the IC50 was determined as 25 nM.

`COc1ccccc1N1CC[C@@H](N2Cc3cccc(OC)c3N(Cc3ccccc3C(F)(F)F)C2=O)C1` [Example 10, 8-Methoxy-3-[(R)-1-(2-methoxy-phenyl)-pyrrolidin-3-yl]-1-(2-trifluoromethyl-benzyl)-3,4-dihydro-1H-quinazolin-2-one]: the IC50 worked out at 1870 nM.

With `COc1cccc(F)c1N1CC[C@@H](N2Cc3cccc(OC)c3N(Cc3ccccc3C(F)(F)F)C2=O)C1` [Example 11, 3-[(R)-1-(2-Fluoro-6-methoxy-phenyl)-pyrrolidin-3-yl]-8-methoxy-1-(2-trifluoromethyl-benzyl)-3,4-dihydro-1H-quinazolin-2-one], the half-inhibitory concentration (IC50) is 219 nM.

Turning to `Cn1nc(C2CC2)c(Cl)c1N1CCC(N2Cc3ccccc3N(Cc3ccccc3C(F)(F)F)C2=O)CC1` [Example 12, 3-[1-(4-Chloro-5-cyclopropyl-2-methyl-2H-pyrazol-3-yl)-piperidin-4-yl]-1-(2-trifluoromethyl-benzyl)-3,4-dihydro-1H-quinazolin-2-one], the IC50 came to 679 nM.

Take `Cc1cccc(C)c1N1CC[C@H](N2Cc3ccccc3N(Cc3ccccc3C(F)(F)F)C2=O)C1` [Example 14, 3-[(S)-1-(2,6-Dimethyl-phenyl)-pyrrolidin-3-yl]-1-(2-trifluoromethyl-benzyl)-3,4-dihydro-1H-quinazolin-2-one]: the 50% inhibitory concentration (IC50) was 627 nM.

As for `O=C1N(Cc2ccccc2C(F)(F)F)c2ccccc2CN1[C@H]1CCN(c2c(F)cccc2F)C1` [Example 15, 3-[(S)-1-(2,6-Difluoro-phenyl)-pyrrolidin-3-yl]-1-(2-trifluoromethyl-benzyl)-3,4-dihydro-1H-quinazolin-2-one], the half-maximal inhibitory concentration (IC50) came out at 847 nM.

Take `COc1ccccc1N1CC[C@H](N2Cc3ccccc3N(Cc3ccccc3C(F)(F)F)C2=O)C1` [Example 16, 3-[(S)-1-(2-Methoxy-phenyl)-pyrrolidin-3-yl]-1-(2-trifluoromethyl-benzyl)-3,4-dihydro-1H-quinazolin-2-one]: the IC50 is 635 nM.

For `COc1cccc(F)c1N1CC[C@H](N2Cc3ccccc3N(Cc3ccccc3C(F)(F)F)C2=O)C1` [Example 17, 3-[(S)-1-(2-Fluoro-6-methoxy-phenyl)-pyrrolidin-3-yl]-1-(2-trifluoromethyl-benzyl)-3,4-dihydro-1H-quinazolin-2-one], the IC50 came to 437 nM.

As to `Cc1cccc(C)c1N1CC[C@@H](N2Cc3ccccc3N(Cc3ccccc3C(F)(F)F)C2=O)C1` [Example 18, 3-[(R)-1-(2,6-Dimethyl-phenyl)-pyrrolidin-3-yl]-1-(2-trifluoromethyl-benzyl)-3,4-dihydro-1H-quinazolin-2-one], the IC50 is 28 nM.

In the case of `O=C1N(Cc2ccccc2C(F)(F)F)c2ccccc2CN1[C@@H]1CCN(c2c(F)cccc2F)C1` [Example 19, 3-[(R)-1-(2,6-Difluoro-phenyl)-pyrrolidin-3-yl]-1-(2-trifluoromethyl-benzyl)-3,4-dihydro-1H-quinazolin-2-one], the IC50 was found to be 53 nM.

For the molecule `COc1ccccc1N1CC[C@@H](N2Cc3ccccc3N(Cc3ccccc3C(F)(F)F)C2=O)C1` [Example 20, 3-[(R)-1-(2-Methoxy-phenyl)-pyrrolidin-3-yl]-1-(2-trifluoromethyl-benzyl)-3,4-dihydro-1H-quinazolin-2-one], the IC50 is 181 nM.

For the molecule `COc1cccc(F)c1N1CC[C@@H](N2Cc3ccccc3N(Cc3ccccc3C(F)(F)F)C2=O)C1` [Example 21, 3-[(R)-1-(2-Fluoro-6-methoxy-phenyl)-pyrrolidin-3-yl]-1-(2-trifluoromethyl-benzyl)-3,4-dihydro-1H-quinazolin-2-one], the IC50 turned out to be 37 nM.

`COc1cccc(C)c1N1CC[C@@H](N2Cc3cccc(OC)c3N(Cc3ccccc3C(F)(F)F)C2=O)C1` [Example 22, 8-Methoxy-3-[(R)-1-(2-methoxy-6-methyl-phenyl)-pyrrolidin-3-yl]-1-(2-trifluoromethyl-benzyl)-3,4-dihydro-1H-quinazolin-2-one]: the concentration for half-maximal inhibition (IC50) stood at 52 nM.

Turning to `COc1cccc(C)c1N1CCC(N2Cc3ccccc3N(Cc3ccccc3C(F)(F)F)C2=O)CC1` [Example 23, 3-[1-(2-Methoxy-6-methyl-phenyl)-piperidin-4-yl]-1-(2-trifluoromethyl-benzyl)-3,4-dihydro-1H-quinazolin-2-one], the IC50 was 32 nM.

As to `COc1cccc(OC)c1N1CC[C@@H](N2Cc3cccc(OC)c3N(Cc3ccccc3C(F)(F)F)C2=O)C1` [Example 24, 3-[(R)-1-(2,6-Dimethoxy-phenyl)-pyrrolidin-3-yl]-8-methoxy-1-(2-trifluoromethyl-benzyl)-3,4-dihydro-1H-quinazolin-2-one], the IC50 stood at 383 nM.
